Values quoted from earlier work, collected in patent US12440459B2, “Norepinephrine compositions and methods therefor” (Nevakar Injectables Inc., priority 2017, dated 2025).

Conditions: Int J Toxicol. 2002; 21 Suppl 2:19-94

**Q.** Which “renal and hepatic damage” value does the source give for `COc1ccc(O)c(C(C)(C)C)c1` [butylated hydroxyl anisole] here?
**A.** some renal and hepatic damage
